The results in this text go back to ChEMBL document CHEMBL1201862, “PubChem BioAssay data set” (2004).

Each structure is given as a SMILES string. The source made the active and inactive calls. Cut-off read from the data, not from the text of the source, for most assays here: actives have a measured EC50 and inactives only a lower limit.

Assay [1] is described as follows: NIH-3T3 fibroblast cytotoxicity, dose response, cytotoxicity control, cell-based, fluorescence, Alamar Blue, secondary assay (AID 2327).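 Note: NIH-3T3 mouse fibroblasts cultured with fluconazole at 8 µg/mL.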 It is filed as functional. For orientation: The colour change of resazurin is a common sign of viable cells or microbes.
Assay [2] can be described thus: fluconazole-exposed Candida albicans growth modulators – fluorescence, retest, confirmation (AID 2467). In kind it is functional, cell-based.
Assay [3] deals with Streptococcus sp. 'group A'. In words: Streptococcus pyogenes SK(-)GAS viability under kanamycin – luminescence, BacTiterGlo, confirmation, counter-screen for streptokinase expression inhibitor project, dose response (AID 1900). In kind it is functional, organism-based. Background: A counterscreen serves to expose hits that act by an unwanted route or on another target.
In assay [4] the target is T1, Streptokinase A (Streptococcus pyogenes serotype M1, UniProt P10520).
T1 sequence (P10520 whole entry): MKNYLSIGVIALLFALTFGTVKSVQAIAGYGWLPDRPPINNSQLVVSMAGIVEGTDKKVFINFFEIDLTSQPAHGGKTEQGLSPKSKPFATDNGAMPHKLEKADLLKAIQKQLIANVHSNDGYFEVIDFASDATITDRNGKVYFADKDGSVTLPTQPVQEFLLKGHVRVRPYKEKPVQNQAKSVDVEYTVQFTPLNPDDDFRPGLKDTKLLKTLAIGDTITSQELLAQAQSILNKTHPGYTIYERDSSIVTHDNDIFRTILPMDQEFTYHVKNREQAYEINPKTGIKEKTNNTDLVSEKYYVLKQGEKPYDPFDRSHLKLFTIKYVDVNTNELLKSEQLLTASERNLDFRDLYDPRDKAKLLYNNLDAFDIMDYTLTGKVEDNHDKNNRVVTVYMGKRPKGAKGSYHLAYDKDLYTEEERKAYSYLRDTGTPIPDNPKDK
As to the kind of experiment: viability-normalized secreted streptokinase activity reduction – plasminogen activation absorbance, OD405, dose response (AID 1914).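 Note: secreted streptokinase activity via plasminogen activation per viability signal from cell pellet.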 It is filed as functional, Streptococcus pyogenes M1 GAS.

Assay [5] has as its system Streptococcus. As to the kind of experiment: GAS UMAA2166 growth inhibition – luminescence, BacTiterGlo, counter-screen for streptokinase expression inhibitor project, dose response (AID 1915).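 Note: potency for reduction of bacterial viability or growth.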 It is filed as functional, organism-based.
A short description of assay [6]: Luminescence Cell-Based Dose Response HTS to Identify Activators of Luciferase Translation or Activity in H4 […] Cells. [Related pubchem assays: 1829 (Project Summary), 1814 (Primary HTS)]. In kind it is functional.
Assay [7] relates to H4. As to the kind of experiment: Luminescence Cell-Based Dose Response HTS to Identify Activators of 5'UTR Stem-Loop Driven Prion Protein mRNA Translation in H4 Neuroglioblastoma Cells. [Related pubchem assays: 1829 (Project Summary), 1814 (Primary HTS)]. As to conditions: Homo sapiens. In kind it is functional.
Assay [8] in a line: Trypanosoma cruzi growth suppression in host cells – NIH3T3 host cells, beta-gal luminescence, confirmation (AID 2044).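 Note: intracellular parasites grown in NIH/3T3 mouse fibroblasts as host cells; luminescent beta-galactosidase reporter signal from transgenic T. cruzi replicating inside host cells; inhibitors lower the luminescence signal.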 In kind it is functional, cell-based.
The nature of assay [9]: NIH3T3 cell viability loss – ATP luminescence, mouse fibroblasts, counter-screen, dose response (AID 2010).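 Note: cells exposed to compound for about 90 hours before reading.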 In kind it is functional, cell-based.
Assay [10] is described as follows: Luminescence Cell-Based Dose Retest to Confirm Inhibitors of Cancer Stem Cells. [Related pubchem assays (depositor defined):AID2717, AID2721]. It is filed as functional. As to conditions: Homo sapiens.
A short description of assay [11]: viability of PTEN-deleted HCT116 cells – cell-based, HCT116 PTEN knockout, dose response (AID 1047).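 Note: HCT116 colon tumor cells with PTEN knocked out; cells exposed to compound for 60 hours before readout; potency for loss of cell viability measured by luminescence.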 It is filed as functional.
The nature of assay [12]: viability of HCT116 lacking mutant beta-catenin – cell-based, human colon tumor, dose response (AID 1045).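 Note: HCT116 colon tumor cells with beta catenin knocked out; cells exposed to compound for 60 hours.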 In kind it is functional.
Assay [13] in a line: viability of uninfected HEp-2 cells – cell-based, HTS, cytotoxicity control for RSV inhibitor project, dose response (AID 2410). In kind it is functional. As to conditions: human respiratory syncytial virus.
Assay [14] concerns the target T2, Corticotropin-releasing factor receptor 2/Corticotropin-releasing factor-binding protein (Homo sapiens, UniProt P24387+Q13324).
T2 sequence (Q13324 whole entry): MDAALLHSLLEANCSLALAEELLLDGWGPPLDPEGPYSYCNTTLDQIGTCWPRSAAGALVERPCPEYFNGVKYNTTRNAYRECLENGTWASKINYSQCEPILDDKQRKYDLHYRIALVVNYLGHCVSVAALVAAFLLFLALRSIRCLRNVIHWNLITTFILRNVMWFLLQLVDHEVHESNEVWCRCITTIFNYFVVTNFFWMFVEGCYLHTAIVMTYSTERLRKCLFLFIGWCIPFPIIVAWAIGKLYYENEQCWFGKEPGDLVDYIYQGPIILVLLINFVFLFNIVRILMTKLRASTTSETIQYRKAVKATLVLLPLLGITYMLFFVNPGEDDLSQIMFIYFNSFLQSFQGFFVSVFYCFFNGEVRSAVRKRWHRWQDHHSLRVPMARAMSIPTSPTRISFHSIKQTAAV
T2 sequence (P24387 whole entry): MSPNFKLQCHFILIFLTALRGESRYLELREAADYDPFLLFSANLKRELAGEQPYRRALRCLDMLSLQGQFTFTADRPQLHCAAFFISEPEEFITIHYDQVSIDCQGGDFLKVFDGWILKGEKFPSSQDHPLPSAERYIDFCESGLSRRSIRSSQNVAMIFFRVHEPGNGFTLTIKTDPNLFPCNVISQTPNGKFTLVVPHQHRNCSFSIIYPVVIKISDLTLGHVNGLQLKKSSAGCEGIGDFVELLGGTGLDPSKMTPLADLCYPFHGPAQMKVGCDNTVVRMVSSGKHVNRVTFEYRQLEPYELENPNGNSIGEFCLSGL
As to the kind of experiment: Dose Response confirmation of uHTS hits for small molecule antagonists of the CRF-binding protein and CRF-R2 receptor complex. It is filed as functional. As to conditions: read-out: IC50_Mean.

Assay [15] concerns the target T2, Corticotropin-releasing factor receptor 2/Corticotropin-releasing factor-binding protein. As to the kind of experiment: activators of CRF receptor 2 with binding protein – uHTS hits, confirmation (AID 602473). As to conditions: read-out: EC50_Mean. It is filed as functional.
Assay [16] in a line: luciferase reporter signal suppression in cells – H4 neuroglioma cells, luminescence, dose response (AID 1990). In kind it is functional, cell-based. In general terms: A reporter such as luciferase makes a cellular process visible.
Assay [17] in a line: Luminescence Cell-Based Dose Response HTS to Identify Inhibitors of 5'UTR Stem-Loop Driven Prion Protein mRNA Translation in H4 Neuroglioblastoma Cells. [Related pubchem assays: 1827 (Project Summary), 1813 (Primary HTS)]. In kind it is functional.
A short description of assay [18]: alpha-synuclein stem-loop luciferase translation blockers – H4 neuroglioma cells, luminescence, confirmation (AID 1988). In kind it is functional, cell-based.
The target in assay [19] is Paired box protein Pax-8 (Homo sapiens, UniProt Q06710). In words: PAX8 transcriptional activity inhibition in RMG-I – RMG-I cells, luciferase, cherry-pick, dose response (AID 687027).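 Note: luciferase reporter driven by Pax8 target thyroperoxidase promoter measured by SteadyGlo luminescence.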 It is filed as functional, cell-based.
Chain of Paired box protein Pax-8 (Q06710 whole entry): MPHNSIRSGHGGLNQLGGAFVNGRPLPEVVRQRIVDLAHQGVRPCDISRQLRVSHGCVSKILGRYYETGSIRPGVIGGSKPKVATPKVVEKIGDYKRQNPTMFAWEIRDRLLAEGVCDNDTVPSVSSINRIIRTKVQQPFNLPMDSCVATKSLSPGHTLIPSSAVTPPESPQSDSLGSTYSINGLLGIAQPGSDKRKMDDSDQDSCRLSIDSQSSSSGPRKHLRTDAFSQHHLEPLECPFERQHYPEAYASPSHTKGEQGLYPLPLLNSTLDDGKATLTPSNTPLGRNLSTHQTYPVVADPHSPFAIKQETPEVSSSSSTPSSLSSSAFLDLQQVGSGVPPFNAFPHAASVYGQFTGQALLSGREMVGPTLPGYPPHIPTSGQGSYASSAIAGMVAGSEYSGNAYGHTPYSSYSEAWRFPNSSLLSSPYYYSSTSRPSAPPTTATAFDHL

Consider `S=C(NCCN1CCOCC1)NC1CCCC1`, for which the EC50 in assay [1] was > 150 µM (inactive); in [2], > 38 µM (not active).
Consider `CCOC(=O)c1sc(Nc2nc3ccc(OC)cc3s2)cc1C`, for which the EC50 in assay [3] was 9.29 µM (active); in assay [4], > 150 µM (not active); in assay [5] it was 8.88 µM (active).
In the case of `COc1cc2c(cc1NC(=O)c1ccccc1F)CCCC2`, the EC50 in [6] is 89.6 µM (active); in assay [7], > 120 µM (not active).
In the case of `CCc1c(C)c(C#N)c2nc3ccccc3n2c1S`, the EC50 was 14.6 µM (active) in assay [3], > 150 µM (not active) in assay [4] and 21.5 µM (active) in [5].
In general, AC50 refers to the concentration at which the activity in the assay is half-maximal. As to `CCCc1nc2ccccc2c(C(=O)OCC(=O)N2CCc3ccccc32)c1CC`, the EC50 in assay [8] was 0.496 µM (active); in [9] it was > 60 µM (not active). For the same compound, the AC50 in [10] was 3.04 µM (active).
For `COCCn1c(SCC(=O)Nc2ccc(F)cc2)nc2c3ccccc3nc-2c1O`, the EC50 in assay [3], in [4] and in assay [5] was > 150 µM (not active) each time.
With `COC(=O)[C@@H]1CCCN1Cc1nc(Cc2ccccc2F)no1`, the EC50 in [1] was > 160 µM (inactive); in assay [2], > 38 µM (not active).
For the compound `Fc1ccccc1COc1ccc(-c2nnn(Cc3ccccc3F)n2)cc1`, the AC50 in assay [10] was 5.63 µM (active).
For the compound `Cc1cccc(Nc2nnc(-c3ccc(N4CCOCC4)c([N+](=O)[O-])c3)c3ccccc23)c1`, the EC50 in [3] was 3.77 µM (active); in [4] it was > 150 µM (not active); in assay [5], 125 µM (active).
The corresponding values for `CCSc1cc(N2CCCC2)nc(-c2ccccc2)n1` are > 150 µM (not active), 66.1 µM (active) and > 150 µM (not active).
The corresponding values for `Oc1c2cnnc-2nc(SCc2c(F)cccc2F)n1-c1ccc(Cl)cc1` are 14.1 µM (active), > 150 µM (not active) and > 150 µM (not active).
Turning to `Cc1ccc(Cn2ccc(NC(=O)c3cc(C)on3)n2)cc1`, the results for the EC50 in [1] and in assay [2] were > 150 µM (inactive) and > 38 µM (not active), respectively.
As to `O=C(/C=C/c1ccc(N2CCCCC2)c([N+](=O)[O-])c1)c1ccc(S(=O)(=O)N2CCCC2)cc1`, the EC50 in [11] is 4.4 µM (active); in assay [12] it was 3.42 µM (active).
Take `O=C(CC1Nc2ccccc2NC1=O)Nc1ccccc1` (stereo unspecified): the AC50 in assay [10] is 0.568 µM (active).
Consider `COc1cc(OC)cc(-c2cc3nc4c(c(N5CCN(c6ncccn6)CC5)n3n2)CCCC4)c1`, for which the results for the EC50 in assay [3], in [4] and in assay [5] were 13.2 µM (active), > 150 µM (not active) and 106 µM (active), respectively.
In the case of `COC(=O)c1ccc(NS(=O)(=O)c2cc(-c3cc(C)no3)ccc2OC)cc1`, the EC50 in assay [1] is 127 µM (active); in assay [2] it was > 38 µM (not active).
The term CC50 denotes the concentration giving 50% cytotoxicity. Turning to `Oc1nc(NN=C(S)NC2CCCCC2)nc2c1C1(CCCC1)Cc1ccccc1-2`, the CC50 in [13] was 25.7 µM (active). Further, the EC50 in assay [3] is 5.2 µM (active); in assay [4], 16.1 µM (active); in assay [5], 17.2 µM (active).
Regarding `COc1ccc(NC(=O)c2cc(-c3ccccc3OC)on2)cc1`, in assay [10], the AC50 was 0.248 µM (active). Moreover, the IC50 in [14] was > 47.1 µM (inactive). Besides, the EC50 in assay [15] is > 53 µM (inactive).
With `Cc1nn(-c2ccccc2)c(Cl)c1C1C(C#N)=C(N)OC2=C1C(=O)CCC2` (stereo unspecified), the EC50 in assay [3] was 1.77 µM (active); in assay [4], > 150 µM (not active); in assay [5], 15.9 µM (active).
For `Cc1ccc(S(=O)(=O)N(CC(=O)Nc2ccc(Cl)c([N+](=O)[O-])c2)C2CCCCC2)cc1`, the EC50 in assay [8] was 3.08 µM (active); in assay [11], 16.2 µM (active); in [9], > 60 µM (not active); in [12], 19 µM (active).
Take `Cc1cc(C(=O)COC(=O)C2=COCCO2)c(C)n1-c1cccc(F)c1`: the EC50 in assay [7] was 0.887 µM (active).
On to `Cc1nn(-c2nc3ccccc3s2)c(N)c1Sc1ccc(F)cc1`, for which the EC50 is 15.5 µM (active) in [11] and 19.6 µM (active) in assay [12].
Regarding `CCC/C(=C1/c2ccccc2C(=O)N1c1ccccc1)c1ccc2[nH]ccc2c1`, the AC50 in assay [10] was 1.04 µM (active).
Consider `COc1ccc(O)c(/C=N/NC(=O)c2ccc(N3CCCC3=O)cc2)c1`, for which the EC50 in assay [1] was > 160 µM (inactive); in assay [16], 14.8 µM (active); in assay [17], 16.3 µM (active); in assay [18], 12.5 µM (active). The AC50 in assay [19] is < 0.26 µM (active).
As for `O=C(CSc1ccc2ccccc2n1)N/N=C/c1ccccc1O`, the EC50 in assay [3] was 1.1 µM (active); in assay [4], > 150 µM (not active); in assay [5], 2.9 µM (active).
`Cc1c(O)cc2c(c1O)C(=O)CC(c1ccccc1)O2` (stereo unspecified) [STROBOPININ]: the AC50 in assay [10] is 4.97 µM (active). The EC50 in [15] was 2.69 µM (active).
